SMILES strings stand for the structures.

A short description of this data set: Human HepG2 cell viability assay in 384 well format. On the set-up: dose 125 nL, time 70.5 hour; cytotoxicity at 70.5 h: concentration not given beside the values. Conditions: HepG2 cells, read-out: Inhibition. The data set is classed as toxicity, cell-based.
`O=C(c1ccccn1)N1CCN(c2ccc(-c3cccnc3)nn2)CC1`: the cytotoxicity at 70.5 h is -11.4%.

In the case of `OCCOCc1n[nH]c2c1CN(Cc1ccccn1)C2`, the cytotoxicity at 70.5 h was -7.78%.

In the case of `CC(Nc1ccc(CC(=O)N(C)C)cc1)C(=O)N(C)CCC#N` (centres undefined), the cytotoxicity at 70.5 h is -12.3%.

Turning to `Cc1cnn(CC2CCCCN2CCS(C)(=O)=O)c1` (centres undefined), the cytotoxicity at 70.5 h is -1.02%.

Turning to `COc1ccc(CN2CCC3(CC2)CCN(CC(=O)N(C)C)C3=O)cc1`, the cytotoxicity at 70.5 h was -16.7%.

On to `CCOc1ccccc1C(CC(=O)Nc1ccc(C)cn1)NC(C)=O` (centres undefined), for which the cytotoxicity at 70.5 h was -9.08%.

For `O=C(c1ccccc1)N1CCN(C2CCc3ccc(F)cc32)CC1` (centres undefined), the cytotoxicity at 70.5 h was -9.61%.

Take `NC(=O)CN1CCCN(C(=O)Cc2ccc3c(c2)OCO3)CC1`: the cytotoxicity at 70.5 h was -2.14%.

Turning to `Cc1ccc(-c2ncc(C(=O)NCCS(N)(=O)=O)s2)c(C)c1`, the cytotoxicity at 70.5 h was -1.3%.

As for `CN1CCCN(C(=O)NCCNc2cnccn2)CC1`, the cytotoxicity at 70.5 h is -3.22%.

Turning to `Cc1csc(CNC(=O)NCC(C)Cn2nc(C)cc2C)n1` (centres undefined), the cytotoxicity at 70.5 h is -5.06%.

As for `O=C(NC[C@H]1OC[C@@H](NCc2ccccc2F)[C@@H]1O)c1ccc(F)cc1`, the cytotoxicity at 70.5 h is -3.67%.

`Cc1nc(C)n(CC2CCCN2CC(=O)N(C)Cc2ccc(C)o2)n1` (centres undefined): the cytotoxicity at 70.5 h is -4.56%.

Turning to `CC(C)c1cc(NC(CCO)c2ccccc2)n2nccc2n1` (centres undefined), the cytotoxicity at 70.5 h came out at 3.68%.

Consider `CN(Cc1cnn(C)c1)C(=O)C1CCCN1Cc1ccccn1` (centres undefined), for which the cytotoxicity at 70.5 h is 26.2%.

Turning to `O=C(Cc1ccccc1Cl)N1CCCC(n2cncn2)C1` (centres undefined), the cytotoxicity at 70.5 h was -7.27%.

For the molecule `COCC(C)NC(=O)c1nnn(-c2ccc(F)cc2)n1` (centres undefined), the cytotoxicity at 70.5 h was -5.45%.

`C[C@@H]1CN(C(=O)c2ccc[nH]2)C[C@]12CCN(CCN1CCCC1)C2=O`: the cytotoxicity at 70.5 h was -5.21%.

Turning to `O=C(NCC(Cc1cccc(F)c1)n1cccc1)C1CC1` (centres undefined), the cytotoxicity at 70.5 h is -16.2%.

Take `CSc1ccc(CN2C[C@@H]3CC[C@@](O)(c4ccc(C)cn4)[C@@H]3C2)cc1`: the cytotoxicity at 70.5 h worked out at 41.8%.

As for `CCOc1ccccc1C(C(=O)O)N(C)CC1CCOCC1` (centres undefined), the cytotoxicity at 70.5 h is 21.4%.

Consider `Cc1nc(CN(C)C2CCN(Cc3ccc4ccccc4n3)C2)no1` (centres undefined), for which the cytotoxicity at 70.5 h worked out at 20.5%.

Turning to `O=C1CCC2(CCN(Cc3cscn3)CC2)CN1CC1CCCO1` (centres undefined), the cytotoxicity at 70.5 h came to 10.4%.

For `CC1Cn2c(nc3c2c(=O)[nH]c(=O)n3C)O1` (centres undefined), the cytotoxicity at 70.5 h was -12.3%.

As to `Cc1ccccc1N1CC(C)N(Cc2ccc(C)c(F)c2F)CC1=O` (centres undefined), the cytotoxicity at 70.5 h was found to be 5.81%.

As to `CCOc1cccc(CNC(=O)c2cnn(CC)c2C(F)(F)F)c1`, the cytotoxicity at 70.5 h was -2.57%.

Take `COCC[C@]1(O)CCN(Cc2nc(C(C)C)cs2)C[C@H]1C`: the cytotoxicity at 70.5 h was -6.41%.

On to `COCCNC(=O)C1(c2ccc(C)c(OC)c2)CCCC1`, for which the cytotoxicity at 70.5 h was -10.9%.

As to `CC(C)c1noc(C2CC(=O)N(CCN(C)C)C2)n1` (centres undefined), the cytotoxicity at 70.5 h was -8.25%.

For `CC(Cn1ccnc1)NC(=O)NCCc1cccs1` (centres undefined), the cytotoxicity at 70.5 h was -11.6%.

Turning to `Cc1nc(-c2cc(C(=O)NCC(C)(C)CO)c3ccccn23)cs1`, the cytotoxicity at 70.5 h was determined as 5.35%.

As to `COc1cc(C(C#N)NC(=O)CC2=CCCCC2)cc(OC)c1OC` (centres undefined), the cytotoxicity at 70.5 h is -5.49%.

Consider `CC/N=c1\nc(NCC)nc2n1C(O)(Nc1cc(C)ccc1C)CS2` (centres undefined), for which the cytotoxicity at 70.5 h is -10.1%.

For `CN(C)c1nc2c(c(N3CCC(O)CC3)n1)CN(CC(C)(C)C)CC2`, the cytotoxicity at 70.5 h was -13.5%.

As to `Cc1nc(NS(=O)(=O)c2cc(Br)ccc2C)no1`, the cytotoxicity at 70.5 h was -11.8%.

As to `CCOc1cccc(C(C)NC(=O)N2CCC3(CC2)OCCO3)c1` (centres undefined), the cytotoxicity at 70.5 h is -13.2%.

Take `Cc1nc(N)ncc1C(=O)N1CCCC(CCc2ccc(F)c(F)c2)C1` (centres undefined): the cytotoxicity at 70.5 h was -16.6%.

On to `Cc1c(Cl)cccc1S(=O)(=O)N1CCC(S(=O)(=O)c2nncn2C)CC1`, for which the cytotoxicity at 70.5 h amounted to 1.44%.

Take `C[C@@H]1CN(Cc2cccnc2)C[C@]1(C)O`: the cytotoxicity at 70.5 h was -15.2%.

Turning to `Cc1ccc(C(F)(F)F)cc1NCC(=O)Nc1c(C)nn(C)c1C`, the cytotoxicity at 70.5 h was 11.3%.

Regarding `Cc1nn(C)c(N2CCOCC2)c1CNC1CCc2ccccc21` (centres undefined), the cytotoxicity at 70.5 h was -7.04%.

As for `CC(C)Cn1cncc1CNC1CCCNC1` (centres undefined), the cytotoxicity at 70.5 h was -4.78%.

Consider `O=C1COC2(CCN(Cc3ccncc3)CC2)CN1CC1CC1`, for which the cytotoxicity at 70.5 h came to 4.04%.

As for `COc1ccc(N2CCN(C(=O)CCn3nccc3C)CC2(C)C)cc1`, the cytotoxicity at 70.5 h was 1.97%.

Turning to `CN(C)S(=O)(=O)N1CCC(Oc2ccc(C#N)cc2)CC1`, the cytotoxicity at 70.5 h is -4.56%.

As for `c1cncc(OC[C@@H]2CCC[C@@]23CN(Cc2nccs2)CCO3)c1`, the cytotoxicity at 70.5 h was -2.19%.

Turning to `COc1ccccc1Nc1nc2c(C)nn(C)c2c(=O)n1C`, the cytotoxicity at 70.5 h was determined as 26.9%.

On to `CC(C)N1CCCn2nc(C(=O)NCCc3ccccn3)cc2C1`, for which the cytotoxicity at 70.5 h is -9.32%.

`CS(=O)(=O)N[C@@H]1CCN(Cc2ccncc2)[C@H]1Cc1cccnc1`: the cytotoxicity at 70.5 h was -12.8%.

With `Cc1[nH]c2ccc(Cl)cc2c1CCNc1ncnc2c1CCNC2`, the cytotoxicity at 70.5 h was -6.2%.

Turning to `COCCN1C(=O)CC[C@]12CC[C@@H](NC(=O)c1cnccn1)CC2`, the cytotoxicity at 70.5 h is -2.82%.

On to `CNc1ncc(-c2ccc(NC(=O)[C@@H]3CCCCN3)cc2)cn1`, for which the cytotoxicity at 70.5 h is -1.05%.

For `CC(c1nc(-c2ccccc2)no1)N1CC(n2cccn2)C1` (centres undefined), the cytotoxicity at 70.5 h was -4.14%.

Take `CCc1ncc(C(=O)N2CCC(Nc3ccc(C)nn3)CC2)s1`: the cytotoxicity at 70.5 h was -8.02%.

As for `Cc1nn(-c2ccccc2)nc1C(=O)NCC(c1ccco1)N(C)C` (centres undefined), the cytotoxicity at 70.5 h was -15.6%.

Consider `CCOCCC(=O)Nc1cc(C(N)=O)ccc1N1CCCC(C)C1` (centres undefined), for which the cytotoxicity at 70.5 h is -2.01%.

Consider `CCC(CC)NC(=O)Cn1cc(-c2ccccc2)cn1`, for which the cytotoxicity at 70.5 h is -2.71%.

In the case of `Nc1nc(CCCNC(=O)c2ccc(C3CCCNC3)cc2)cs1` (centres undefined), the cytotoxicity at 70.5 h is -7.45%.

As to `CCc1ccc(C(=O)N2CCN(CCS(C)(=O)=O)CC2)o1`, the cytotoxicity at 70.5 h is -14.1%.

With `Cc1ccccc1CS(=O)(=O)CC(=O)N(C)Cc1ccccc1F`, the cytotoxicity at 70.5 h was -1.24%.

With `Cc1cc(C(=O)N2CCn3cc(CN4CCCC4)nc3C2)no1`, the cytotoxicity at 70.5 h was -13.3%.

Consider `CCS(=O)(=O)c1ccc(N2CCC(NC(=O)CCC(C)C)CC2)cc1`, for which the cytotoxicity at 70.5 h is -9.09%.

For `Cc1ccc(CNC(=O)N2CCOCC2C2CC2)cc1F` (centres undefined), the cytotoxicity at 70.5 h was -8.34%.

For the molecule `O=C(NCCO)C1CN(c2cncnc2)CCO1` (centres undefined), the cytotoxicity at 70.5 h is -8.3%.

For `Cc1cc(C(=O)NCC(C)N2CCc3ccccc32)no1` (centres undefined), the cytotoxicity at 70.5 h worked out at 15.4%.

Regarding `COc1ccc(NC(=O)CSc2nncn2-n2cccc2)c(OC)c1`, the cytotoxicity at 70.5 h is -14.5%.

Consider `O=C(C1CCOCC1)N1CC[C@@H](N2CCOCC2)[C@@H]1Cc1ccccc1`, for which the cytotoxicity at 70.5 h is 5.57%.

For `CCn1c(CN(C)C(=O)c2ccc(OC)nc2)nc2ccccc21`, the cytotoxicity at 70.5 h is -11.7%.

On to `CC(C)(CNc1cccc(Cl)c1)NC(=O)C1CCCN(CC(N)=O)C1` (centres undefined), for which the cytotoxicity at 70.5 h is -8.71%.

Regarding `Cc1oncc1C(=O)N1CC[C@H]2[C@H]1CCN2Cc1ccccn1`, the cytotoxicity at 70.5 h was -3.13%.

Regarding `COc1ccc(CN2CCN(C(=O)N(C)C)[C@@H]3CS(=O)(=O)C[C@@H]32)cc1F`, the cytotoxicity at 70.5 h stood at 4.21%.

Regarding `Cc1cc(C(=O)N2C[C@@H]3COC[C@]3(c3nnc(C(C)C)o3)C2)on1`, the cytotoxicity at 70.5 h is -9.37%.

For `CN(C)C(=O)c1cccc(NC(=O)Cc2cc(F)ccc2F)n1`, the cytotoxicity at 70.5 h worked out at 1.76%.

Take `O=C(NCCCN1CCOCC1)c1cc(-c2ccccc2)[nH]n1`: the cytotoxicity at 70.5 h is -1.59%.

Regarding `O=C(CSc1nnc(N2CCNCC2)s1)Nc1ccccc1`, the cytotoxicity at 70.5 h is 27.6%.

Turning to `CN(Cc1ccsc1)C(=O)c1ccc(C2CCCO2)s1` (centres undefined), the cytotoxicity at 70.5 h came out at 30.9%.

As to `Cc1nc(COCC2CN(C(=O)N(C)C)Cc3nccn3C2)cs1` (centres undefined), the cytotoxicity at 70.5 h was -5.94%.

Regarding `O=C(CN1CCc2ccccc21)NCc1ccc(Cl)cc1`, the cytotoxicity at 70.5 h was found to be 3.34%.

In the case of `N#Cc1cc(S(N)(=O)=O)ccc1NC1CCc2cc(Cl)ccc21` (centres undefined), the cytotoxicity at 70.5 h was -11.2%.

As for `COCCN1C(=O)[C@H]2CC[C@@H]1CN(c1nccc(C)n1)C2`, the cytotoxicity at 70.5 h is -9.1%.

As to `CCOCC(=O)NCCc1nc(C)cc(C(F)(F)F)n1`, the cytotoxicity at 70.5 h was -10.8%.

Take `Cc1cnn(CC2CN(Cc3nc(C)c4ccccc4n3)CCO2)c1` (centres undefined): the cytotoxicity at 70.5 h is -7.25%.

For the molecule `O=C(Nc1cccc(C(F)(F)F)c1)N1CCN(CCn2ccnc2)CC1`, the cytotoxicity at 70.5 h is -10.1%.

Turning to `CN(CCc1nccs1)C(=O)CC1(O)CCCCC1`, the cytotoxicity at 70.5 h was -5.26%.

Regarding `COCCc1noc(CN2CCCC(Cn3nc(C)nc3C)C2)n1` (centres undefined), the cytotoxicity at 70.5 h amounted to 2.6%.

Consider `O=C(c1coc(COc2ccccc2F)n1)N1CCC[C@H]1CO`, for which the cytotoxicity at 70.5 h is -2.42%.

As to `CCc1nc(C2CCCN2CCCS(N)(=O)=O)no1` (centres undefined), the cytotoxicity at 70.5 h was -3.37%.

For `Cc1cc(CN(C)C(=O)c2cccc(N3CCCC3=O)c2)no1`, the cytotoxicity at 70.5 h is -9.25%.

Regarding `CN(C)c1ncc2c(c1C(=O)O)CCN(Cc1ccco1)C2`, the cytotoxicity at 70.5 h was -4.04%.

With `O=C(c1cnns1)N1CCN(c2ccc(F)cc2Cl)CC1`, the cytotoxicity at 70.5 h is 4.28%.

For the molecule `Cc1nnc2n1CCN(CC(O)CN1CCC(C)CC1)C2` (centres undefined), the cytotoxicity at 70.5 h was -2.86%.

Regarding `CCSc1ncc(CN2CCN(c3nc(C)cnc3C)CC2)cn1`, the cytotoxicity at 70.5 h was 23.3%.

In the case of `CC(=O)N1CCCN(C(=O)c2ccn(-c3cccc(Cl)c3)n2)CC1`, the cytotoxicity at 70.5 h was -26.5%.

For the molecule `O=C1[C@H]2CN(C(=O)[C@H]3CCCO3)C[C@H]2CN1CC1CC1`, the cytotoxicity at 70.5 h is -5.67%.

In the case of `Cc1noc(C)c1CN(C)C(=O)NC1CCN(C2CC2)CC1`, the cytotoxicity at 70.5 h was -2.65%.

Regarding `CN1CCC(CO[C@H]2CN(C(=O)c3cccn3C)[C@@H]3COC[C@H]23)CC1`, the cytotoxicity at 70.5 h is -11.6%.

`CCC1CN(CC(=O)NCC(C)C)CCO1` (centres undefined): the cytotoxicity at 70.5 h was -10.6%.

With `CC(=O)c1ccc(-c2cnn(CC(=O)Nc3ccnn3C)c2)nc1`, the cytotoxicity at 70.5 h is -9.08%.

In the case of `COc1c(CNCc2ccc(CN(C)C)cc2)c(C(C)C)nn1C`, the cytotoxicity at 70.5 h came to 2.15%.
